Patent US20240260575A1, “AGRICULTURAL AND HORTICULTURAL FUNGICIDAL COMPOSITION” (Nippon Soda Co., Ltd., priority 2021, published 2024)

system: gray mold pathogen (Botrytis cinerea); test: Gray mold antimicrobial test (growth inhibition rate); assay type: cell-based; parameters: growth inhibition rate, component (II) alone: concentration or dose not given beside the values; settings: Table 3; ppm: Ipflufenoquin 10, Cyflufenamid 10, Thiophamate-methyl 0.4, Iminoctadine acetate 0.08, Iminoctadine albesilate 0.08, Triflumizole 0.0032, Picarbutrazox 0.08, Prothioconazole 0.0032, Mefentrifluconazole 0.00064, Cymoxanil 10, Fludioxonil 0.016, Metyltetraprole 0.4, Florylpicoxamid 0.08, Fluxapyroxad 0.08, Fluopyram 0.4, Potassium phosphite 10, Fipronil 2, Chlorantraniliprole 0.016, Aba
Experimental: (Test Example) Gray Mold Antimicrobial Test (Growth Inhibition Rate)
Conidiospores of a gray mold pathogen (Botrytis cinerea) were added to and dispersed in a yeast extract sucrose medium, and a component (I) and a component (II) dissolved in dimethyl sulfoxide at predetermined concentrations were further added and mixed thereto, and the resulting solution was dispensed onto a 96-well microplate and cultivated in the dark at 20° C. for 3 to 5 days. After the cultivation, the turbidity at a wavelength of 405 nm was measured by a microplate reader and compared with that in the untreated case to determine the growth inhibition rate (%) for the gray mold pathogen. The test was duplicately carried out. The results are shown in Tables 3 to 7 together with expected values calculated as follows.
Expected values were calculated by using Colby's equation: E=M+N−MN/100. Here, E denotes an expected value (%) of a growth inhibition rate, M denotes a growth inhibition rate (%) in using a component (I) alone, and N denotes a growth inhibition rate (%) in using a component (II) alone.
If the actually measured growth inhibition rate (%) of a composition of a component (I) and a component (II) is higher than the expected value, E, the composition of a component (I) and a component (II) is said to have exerted synergistic effect.

Compound	growth inhibition rate, component (II) alone [%]
Cn1nnnc1/C(=N\OCc1cccc(NC(=O)OC(C)(C)C)n1)c1ccccc1 [Picarbutrazox]	0
Cn1cc(C(=O)Nc2ccccc2-c2cc(F)c(F)c(F)c2)c(C(F)F)n1 [Fluxapyroxad]	8
Abamectin	0
COc1ccnc(C(=O)N[C@@H](C)C(=O)O[C@@H](C)C(c2ccc(F)cc2)c2ccc(F)cc2)c1OC(C)=O [Florylpicoxamid]	13
Potassium phosphite	0
CC(O)(Cn1cncn1)c1ccc(Oc2ccc(Cl)cc2)cc1C(F)(F)F (centres unmarked) [Mefentrifluconazole]	0
Cc1cccc(-n2nnn(C)c2=O)c1COc1ccn(-c2ccc(Cl)cc2)n1 [Metyltetraprole]	0

same assay, conditions: Table 4; ppm: Ipflufenoquin 10, Cyflufenamid 2, Thiophamate-methyl 0.4, Iminoctadine acetate 0.08, Iminoctadine albesilate 0.4, Picarbutrazox 10, Prothioconazole 0.0032, Mefentrifluconazole 0.0006, Cymoxanil 10, Fludioxonil 0.016, Metyltetraprole 10, Fluxapyroxad 0.016, Fluopyram 0.4, Potassium phosphite 10, Fipronil 2, Chlorantraniliprole 0.016, Abamectin 0.016, Sulfoxaflor 10, Tebufenozide 0.016

Compound	growth inhibition rate, component (II) alone [%]
Cn1nnnc1/C(=N\OCc1cccc(NC(=O)OC(C)(C)C)n1)c1ccccc1 [Picarbutrazox]	12
Cn1cc(C(=O)Nc2ccccc2-c2cc(F)c(F)c(F)c2)c(C(F)F)n1 [Fluxapyroxad]	10
Abamectin	0
Potassium phosphite	0
CC(O)(Cn1cncn1)c1ccc(Oc2ccc(Cl)cc2)cc1C(F)(F)F (centres unmarked) [Mefentrifluconazole]	0
Cc1cccc(-n2nnn(C)c2=O)c1COc1ccn(-c2ccc(Cl)cc2)n1 [Metyltetraprole]	52

same assay, conditions: Table 5; ppm: Ipflufenoquin 10, Cyflufenamid 10, Thiophamate-methyl 0.4, Iminoctadine albesilate 0.4, Picarbutrazox 0.0032, Mefentrifluconazole 0.0006, Cymoxanil 10, Captan 0.0032, Fludioxonil 0.016, Metyltetraprole 10, Florylpicoxamid 0.0001, Fluxapyroxad 0.016, Fluopyram 0.0032, Potassium phosphite 0.08, Fipronil 2, Chlorantraniliprole 0.016, Abamectin 0.4, Sulfoxaflor 0.4, Tebufenozide 10

Compound	growth inhibition rate, component (II) alone [%]
Cn1nnnc1/C(=N\OCc1cccc(NC(=O)OC(C)(C)C)n1)c1ccccc1 [Picarbutrazox]	1
Cn1cc(C(=O)Nc2ccccc2-c2cc(F)c(F)c(F)c2)c(C(F)F)n1 [Fluxapyroxad]	10
Abamectin	64
COc1ccnc(C(=O)N[C@@H](C)C(=O)O[C@@H](C)C(c2ccc(F)cc2)c2ccc(F)cc2)c1OC(C)=O [Florylpicoxamid]	0
Potassium phosphite	0
CC(O)(Cn1cncn1)c1ccc(Oc2ccc(Cl)cc2)cc1C(F)(F)F (centres unmarked) [Mefentrifluconazole]	48
Cc1cccc(-n2nnn(C)c2=O)c1COc1ccn(-c2ccc(Cl)cc2)n1 [Metyltetraprole]	33

same assay, conditions: Table 6; ppm: Ipflufenoquin 10, Cyflufenamid 0.08, Thiophamate-methyl 2, Triflumizole 0.08, Picarbutrazox 0.0016, Prothioconazole 0.0006, Mefentrifluconazole 0.08, Cymoxanil 0.08, Captan 0.08, Fludioxonil 0.016, Metyltetraprole 10, Florylpicoxamid 0.0006, Fluxapyroxad 0.0032, Fluopyram 0.016, Potassium phosphite 0.016, Fipronil 10, Chlorantraniliprole 0.08, Abamectin 2, Sulfoxaflor 0.08, Tebufenoz

Compound	growth inhibition rate, component (II) alone [%]
Cn1nnnc1/C(=N\OCc1cccc(NC(=O)OC(C)(C)C)n1)c1ccccc1 [Picarbutrazox]	12
Cn1cc(C(=O)Nc2ccccc2-c2cc(F)c(F)c(F)c2)c(C(F)F)n1 [Fluxapyroxad]	10
Abamectin	12
COc1ccnc(C(=O)N[C@@H](C)C(=O)O[C@@H](C)C(c2ccc(F)cc2)c2ccc(F)cc2)c1OC(C)=O [Florylpicoxamid]	8
Potassium phosphite	1
CC(O)(Cn1cncn1)c1ccc(Oc2ccc(Cl)cc2)cc1C(F)(F)F (centres unmarked) [Mefentrifluconazole]	37
Cc1cccc(-n2nnn(C)c2=O)c1COc1ccn(-c2ccc(Cl)cc2)n1 [Metyltetraprole]	33

same assay, conditions: Table 7; ppm: Ipflufenoquin 0.08, Cyflufenamid 0.08, Thiophamate-methyl 2, Iminoctadine acetate 0.0001, Iminoctadine albesilate 0.4, Triflumizole 0.4, Prothioconazole 0.0032, Mefentrifluconazole 0.08, Cymoxanil 0.08, Captan 0.08, Fludioxonil 0.08, Metyltetraprole 0.0032, Florylpicoxamid 0.0006, Fluxapyroxad 0.016, Fluopyram 0.0032, Potassium phosphite 0.016, Fipronil 2, Chlorantraniliprole 0.016

Compound	growth inhibition rate, component (II) alone [%]
Cn1cc(C(=O)Nc2ccccc2-c2cc(F)c(F)c(F)c2)c(C(F)F)n1 [Fluxapyroxad]	11
Abamectin	0
COc1ccnc(C(=O)N[C@@H](C)C(=O)O[C@@H](C)C(c2ccc(F)cc2)c2ccc(F)cc2)c1OC(C)=O [Florylpicoxamid]	6
Potassium phosphite	12
CC(O)(Cn1cncn1)c1ccc(Oc2ccc(Cl)cc2)cc1C(F)(F)F (centres unmarked) [Mefentrifluconazole]	34
Cc1cccc(-n2nnn(C)c2=O)c1COc1ccn(-c2ccc(Cl)cc2)n1 [Metyltetraprole]	0

system: cucumber powdery mildew pathogen (Sphaerotheca fuliginea); test: Cucumber powdery mildew control test; assay type: in vivo; parameters: scale not given here; settings: Table 8; ppm or dilution rate: Thiophanate-methyl 1.6, Triflumizole 25, Cyflufenamid 1.6, Iminoctadine acetate 0.25, Iminoctadine albesilate 1, Picarbutrazox 2000, Ipflufenoquin 1, Bacillus subtilis ×250, Pseudomonas rhodesiae ×2000, Sodium hydrogen carbonate 250, Potassium bicarbonate 250, Orange oil 4000, Linalool 4000, Thymol 100, Neem oil 2000, Prothioconazole 1.6, Mancozeb 63, Mineral oil 500
Text: (Test Example) Cucumber Powdery Mildew Control Test 1) Preparation of Drug Solution for Test […] The other components (II) were each formulated into an aqueous solution or suspension having a predetermined concentration. 2) Test A mixed solution of a component (I) and a component (II) at a predetermined concentration was sprayed onto cucumber seedlings (variety: “Shimo-shirazu, creeping type”, cotyledon stage). After natural drying at room temperature, conidiospores of a cucumber powdery mildew pathogen (Sphaerotheca fuliginea) were inoculated by blushing off, and the seedlings were kept in a thermostatic room at 20° C. using a 12 hour light/dark cycle for 7 to 10 days. The states of lesion development on leaves were examined by comparing with that for the untreated case, and the control values were determined. The test was duplicately carried out. The results are shown in Tables 8 to 12 together with expected values calculated as follows. Expected values were calculated by using Colby's equation: […] Here, E denotes an expected value of a control value, M denotes a control value in using a component (I) alone, and N denotes a control value in using a component (II) alone. If the actually measured control value of a composition of a component (I) and a component (II) is higher than the expected value, E, the composition of a component (I) and a component (II) is said to have exerted synergistic effect.

Compound	control value, component (II) alone
Cn1nnnc1/C(=N\OCc1cccc(NC(=O)OC(C)(C)C)n1)c1ccccc1 [Picarbutrazox]	50
Mancozeb	17
O=C([O-])O.[K+] [Potassium bicarbonate]	64
O=C([O-])O.[Na+] [Sodium hydrogen carbonate]	33
Cc1ccc(C(C)C)c(O)c1 [Thymol]	17
COC(=O)NC(=S)Nc1ccccc1NC(=S)NC(=O)OC [Thiophanate-methyl]	83
O=C(Cc1ccccc1)N/C(=N\OCC1CC1)c1c(C(F)(F)F)ccc(F)c1F [Cyflufenamid]	50
OC(Cc1ccccc1Cl)(Cn1nc[nH]c1=S)C1(Cl)CC1 (centres unmarked) [Prothioconazole]	50
CCCOC/C(=N\c1ccc(Cl)cc1C(F)(F)F)n1ccnc1 [Triflumizole]	27
C=CC(C)(O)CCC=C(C)C (centres unmarked) [Linalool]	27

same assay, conditions: Table 9; ppm or dilution rate: Thiophanate-methyl 1.6, Triflumizole 25, Cyflufenamid 1.6, Iminoctadine acetate 0.25, Iminoctadine albesilate 1, Picarbutrazox 2000, Ipflufenoquin 1, Bacillus subtilis ×250, Pseudomonas rhodesiae ×2000, Sodium hydrogen carbonate 250, Potassium bicarbonate 250, Orange oil 1000, Linalool 4000, Thymol 100, Neem oil 2000, Prothioconazole 1.6, Mancozeb 63, Mineral oil 500

Compound	control value, component (II) alone
Cn1nnnc1/C(=N\OCc1cccc(NC(=O)OC(C)(C)C)n1)c1ccccc1 [Picarbutrazox]	50
Mancozeb	17
O=C([O-])O.[K+] [Potassium bicarbonate]	64
O=C([O-])O.[Na+] [Sodium hydrogen carbonate]	33
Cc1ccc(C(C)C)c(O)c1 [Thymol]	17
COC(=O)NC(=S)Nc1ccccc1NC(=S)NC(=O)OC [Thiophanate-methyl]	83
O=C(Cc1ccccc1)N/C(=N\OCC1CC1)c1c(C(F)(F)F)ccc(F)c1F [Cyflufenamid]	50
OC(Cc1ccccc1Cl)(Cn1nc[nH]c1=S)C1(Cl)CC1 (centres unmarked) [Prothioconazole]	0
CCCOC/C(=N\c1ccc(Cl)cc1C(F)(F)F)n1ccnc1 [Triflumizole]	27
C=CC(C)(O)CCC=C(C)C (centres unmarked) [Linalool]	27

same assay, conditions: Table 10; ppm or dilution rate: Thiophanate-methyl 1.6, Triflumizole 25, Cyflufenamid 1.6, Iminoctadine acetate 0.25, Iminoctadine albesilate 1, Picarbutrazox 2000, Ipflufenoquin 1, Bacillus subtilis ×1000, Pseudomonas rhodesiae ×2000, Sodium hydrogen carbonate 250, Potassium bicarbonate 250, Orange oil 1000, Linalool 4000, Thymol 100, Neem oil 2000, Prothioconazole 1.6, Mancozeb 63, Mineral oil 5

Compound	control value, component (II) alone
Cn1nnnc1/C(=N\OCc1cccc(NC(=O)OC(C)(C)C)n1)c1ccccc1 [Picarbutrazox]	50
Mancozeb	17
O=C([O-])O.[K+] [Potassium bicarbonate]	17
O=C([O-])O.[Na+] [Sodium hydrogen carbonate]	33
Cc1ccc(C(C)C)c(O)c1 [Thymol]	17
COC(=O)NC(=S)Nc1ccccc1NC(=S)NC(=O)OC [Thiophanate-methyl]	0
O=C(Cc1ccccc1)N/C(=N\OCC1CC1)c1c(C(F)(F)F)ccc(F)c1F [Cyflufenamid]	50
OC(Cc1ccccc1Cl)(Cn1nc[nH]c1=S)C1(Cl)CC1 (centres unmarked) [Prothioconazole]	17
CCCOC/C(=N\c1ccc(Cl)cc1C(F)(F)F)n1ccnc1 [Triflumizole]	27
C=CC(C)(O)CCC=C(C)C (centres unmarked) [Linalool]	17

same assay, conditions: Table 11; ppm or dilution rate: Thiophanate-methyl 1.6, Triflumizole 25, Cyflufenamid 1.6, Iminoctadine acetate 1, Iminoctadine albesilate 1, Picarbutrazox 2000, Ipflufenoquin 1, Bacillus subtilis ×1000, Pseudomonas rhodesiae ×2000, Sodium hydrogen carbonate 250, Potassium bicarbonate 250, Orange oil 1000, Linalool 4000, Thymol 100, Neem oil 2000, Prothioconazole 1.6, Mancozeb 63, Mineral oil 500

Compound	control value, component (II) alone
Cn1nnnc1/C(=N\OCc1cccc(NC(=O)OC(C)(C)C)n1)c1ccccc1 [Picarbutrazox]	50
Mancozeb	17
O=C([O-])O.[K+] [Potassium bicarbonate]	64
O=C([O-])O.[Na+] [Sodium hydrogen carbonate]	33
Cc1ccc(C(C)C)c(O)c1 [Thymol]	17
COC(=O)NC(=S)Nc1ccccc1NC(=S)NC(=O)OC [Thiophanate-methyl]	67
O=C(Cc1ccccc1)N/C(=N\OCC1CC1)c1c(C(F)(F)F)ccc(F)c1F [Cyflufenamid]	50
OC(Cc1ccccc1Cl)(Cn1nc[nH]c1=S)C1(Cl)CC1 (centres unmarked) [Prothioconazole]	0
CCCOC/C(=N\c1ccc(Cl)cc1C(F)(F)F)n1ccnc1 [Triflumizole]	27
C=CC(C)(O)CCC=C(C)C (centres unmarked) [Linalool]	17

same assay, conditions: Table 12; ppm or dilution rate: Thiophanate-methyl 1.6, Triflumizole 25, Cyflufenamid 1.6, Iminoctadine acetate 0.25, Iminoctadine albesilate 1, Picarbutrazox 2000, Ipflufenoquin 1, Bacillus subtilis ×1000, Pseudomonas rhodesiae ×2000, Sodium hydrogen carbonate 1000, Potassium bicarbonate 250, Orange oil 1000, Linalool 4000, Thymol 400, Neem oil 2000, Prothioconazole 1.6, Mancozeb 63, Mineral oil

Compound	control value, component (II) alone
Cn1nnnc1/C(=N\OCc1cccc(NC(=O)OC(C)(C)C)n1)c1ccccc1 [Picarbutrazox]	50
Mancozeb	17
O=C([O-])O.[K+] [Potassium bicarbonate]	64
O=C([O-])O.[Na+] [Sodium hydrogen carbonate]	33
Cc1ccc(C(C)C)c(O)c1 [Thymol]	50
COC(=O)NC(=S)Nc1ccccc1NC(=S)NC(=O)OC [Thiophanate-methyl]	17
O=C(Cc1ccccc1)N/C(=N\OCC1CC1)c1c(C(F)(F)F)ccc(F)c1F [Cyflufenamid]	50
OC(Cc1ccccc1Cl)(Cn1nc[nH]c1=S)C1(Cl)CC1 (centres unmarked) [Prothioconazole]	0
CCCOC/C(=N\c1ccc(Cl)cc1C(F)(F)F)n1ccnc1 [Triflumizole]	27
C=CC(C)(O)CCC=C(C)C (centres unmarked) [Linalool]	27
